Tests used:
[1] = Hygroscopicity of the crystalline form; assay type: physicochemical; conditions: crystalline solid form
[2] = Polymorphic stability at up to 100% relative humidity at room temperature; assay type: physicochemical

hygroscopicity [1]	time over which the form is polymorphically stable [2]	Substance
non-hygroscopic	at least 7 days	Belumosudil Besylate [Form BS1]
non-hygroscopic	at least 7 days	Belumosudil Mesylate [Form M1]
non-hygroscopic	at least 7 days	Belumosudil Tosylate [Form T1]
